Experimental data reported in BindingDB's records for doi:10.1021/acs.jmedchem.3c00926 (Yale University, 2023).

Experiments:
[1] = target: T1, Signal transducer and activator of transcription 3 (Homo sapiens, UniProt P40763); assay: Inhibition of IL-23 induced STAT3 phosphorylation in human KIT225 cells by AlphaLISA assay
[2] = target: T1, Signal transducer and activator of transcription 3; assay: Inhibition of IL-23 induced STAT3 phosphorylation in human Jurkat cells incubated for 30 mins by microplate reader analysis

T1 sequence (P40763 whole entry): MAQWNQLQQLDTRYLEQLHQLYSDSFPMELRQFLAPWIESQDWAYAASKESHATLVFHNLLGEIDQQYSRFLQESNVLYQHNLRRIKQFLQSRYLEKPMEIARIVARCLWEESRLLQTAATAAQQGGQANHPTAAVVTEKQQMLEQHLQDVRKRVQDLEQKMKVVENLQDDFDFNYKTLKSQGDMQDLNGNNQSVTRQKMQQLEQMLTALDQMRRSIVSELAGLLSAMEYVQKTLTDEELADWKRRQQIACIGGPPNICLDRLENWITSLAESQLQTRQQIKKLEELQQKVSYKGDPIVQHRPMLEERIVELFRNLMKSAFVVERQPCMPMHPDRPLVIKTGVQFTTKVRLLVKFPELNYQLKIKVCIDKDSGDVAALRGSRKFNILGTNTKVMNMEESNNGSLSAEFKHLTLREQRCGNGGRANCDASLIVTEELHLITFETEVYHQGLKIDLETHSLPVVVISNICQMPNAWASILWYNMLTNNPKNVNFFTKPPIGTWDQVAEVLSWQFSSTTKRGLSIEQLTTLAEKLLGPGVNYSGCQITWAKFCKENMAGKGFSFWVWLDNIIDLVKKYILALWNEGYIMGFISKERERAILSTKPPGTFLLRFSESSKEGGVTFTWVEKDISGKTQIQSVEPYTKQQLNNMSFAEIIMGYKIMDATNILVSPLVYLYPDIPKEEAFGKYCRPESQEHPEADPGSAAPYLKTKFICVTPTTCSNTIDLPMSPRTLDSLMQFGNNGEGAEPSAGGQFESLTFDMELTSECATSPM

SMILES | IC50 [1] [nM] | IC50 [2] [nM]
CNC(=O)c1cnc(Nc2ccc(C#N)cn2)cc1Nc1cccc(-c2ncn(C)n2)c1OC | 13 | –
NC(=O)c1ccccc1Nc1cc(Nc2ccc(F)cn2)ncc1C(N)=O | 180 | 89
[2H]C([2H])([2H])NC(=O)c1nnc(NC(=O)C2CC2)cc1Nc1ccccc1S(C)(=O)=O | 15 | –
CNC(=O)c1cnc(Nc2ccc(F)cn2)cc1Nc1ccccc1S(C)(=O)=O | 230 | –
N#Cc1cc(Nc2cc(NC3CC3)c3ncc(C(N)=O)n3n2)cc(C(F)(F)F)c1 | 8200 | –
[2H]C([2H])([2H])NC(=O)c1nnc(NC(=O)C2CC2)cc1Nc1cccc(-c2ncn(C)n2)c1OC [Bms-986165] | 89 | –
